Source: US8765803B1, “Rab7 GTPase inhibitors and related methods of treatment” (STC.UNM, priority 2011, dated 2014)
≈ marks a conversion by molar mass, not a printed value. Where “and” joins values, the source holds several entries; their conditions need not be identical. Equal entries are not always repeated. Where two headings read alike, the source gives them in different places.

Columns and labels:
[1] = system: Ras-related GTPases (Cdc42 wt, Rac1wt, Rac1Q61L, Rab2 wt, Rab7 wt, and H-Ras wt); conditions: for Activity for all GTPases tested: multiplex GTPase screen; for Loss in potency across GTPases relative to CID1067700: compared across multiple/all GTPases
Procedure: The eight GTPases were grouped into two sets: Rab7, H-Ras wild type and its V12 mutant, and Cdc42 and its L61 mutant were assayed in a buffer containing 1 mM EDTA, while Rho, Rac1 and its L61 mutant, and Cdc42 and its L61 mutant were assayed in the same buffer but instead containing 1 mM Mg^2+ with Cdc42 and its mutant being tested in both buffers. Besides 1 mM EDTA or 1 mM Mg^2+, the buffer contained 30 mM HEPES, pH 7.5, 40 mM KCl, 100 mM NaCl, 0.1% (v/v) NP-40 and 1% BSA. For each multiplex reaction, an extra set of beads was included to serve as scavengers to bind any proteins that dissociate from their assigned bead set and thereby reduce interference due to protein dissociation during the assay. […] Briefly, each individual GST-tagged enzyme was incubated with 4 μm glutathione-coated microsphere beads overnight with gentle rotation. The microsphere beads have different red fluorescence dyes incorporated and therefore could be separated by a flow cytometer. The unbound enzyme was removed by sufficient washing with the buffer. The bead sets were then combined and dispensed to 384-well plates at 5 μL/well. For one plate, 0.5 μg each of the enzymes and 4.0×10^4 of each bead were used. Then 100 nL compound was added using Biomek FX followed by the addition of 5 μL/well of BODIPY-FL-GTP (ribose-linked BODIPY). […] The beads were aspirated and delivered with the HyperCyt® instrument and read on CyAnADP flow cytometer. Forward scatter and side scatter was used to define the whole bead population. […] The data was analyzed by the HyperView® software developed by Dr. Bruce Edward at the University of New Mexico.
Briefly, six sets of beads (each with a unique red fluorescence intensity) were individually coated with six representative GST-tagged Ras-related GTPases (Cdc42 wt, Rac1wt, Rac1Q61L, Rab2 wt, Rab7 wt, and H-Ras wt) (FIG. 29A). The individually conjugated beads were then assayed in the presence of individual compounds in the Molecular Libraries Small Molecule Repository using a HyperCyt flow cytometry to identify molecules that altered the binding of fluorescent nucleotide to Ras-family GTPases (36).

U937 cells = assay: Cytotoxicity of compounds, cell density and viability; type: cell-based; conditions: 24 h
Procedure: U937 cells were grown to a density of 0.4×10^6 cells/mL Compounds were added to a final concentration of 20 μM or otherwise indicated. As a control, cells were treated with DMSO of the same volume. After 24 h incubation, the density and viability of the cells were measured with Countess Cell Counter according to the protocols from the manufacturer.

Rab7 GTPase = biological target: T1, Rab7 GTPase (UniProt P18067); assay: Multiplex bead-based flow cytometry dose-response, BODIPY-FL-GTP binding to GST-tagged GTPase; conditions: for EC50: mean of n replicates; for % Res: percent response
T1 construct: fused on or other part: GST tag, used to hold the protein on glutathione beads

[2] = Solubility in PBS and assay media, UV absorbance detection; type: physicochemical
Procedure: Solubility was measured in phosphate buffered saline (PBS) at room temperature (23° C.). PBS by definition is 137 mM NaCl, 2.7 mM KCl, 10 mM sodium phosphate dibasic, 2 mM potassium phosphate monobasic and a pH of 7.4. Detection was based on UV absorbance. […]. Solubility was also assessed in the each of the four media used in the individual assays. […]

Rab7 wt = conditions: previously determined (ref 33); read-out: Equilibrium dissociation constant Kd for wild-type Rab7; cited from earlier work
[3] = Assay format EDTA (1 mM EDTA buffer, 100 nM BODIPY-FL-GTP)
[4] = Assay format Mg (1 mM Mg2+ buffer, 1 nM BODIPY-FL-GTP)
[5] = 23 °C, pH 7.4, aqueous buffer, Solubility
[6] = pH 7.5, aqueous with cosolvent or surfactant or cyclodextrin, Solubility

CC1(C)Cc2c(sc(NC(=O)Cc3ccccc3)c2C(=O)O)CO1 [CID740871, 5,5-dimethyl-2-(2-phenylacetamido)-5,7-dihydro-4H-thieno[2,3-c]pyran-3-carboxylic acid]
Activity for all GTPases tested [1]: complete loss of activity | Activity for all GTPases tested ([1]; listed as SID 9938117): inactive

COC(=O)c1c(NC(=S)NC(=O)c2ccccc2)sc2c1CC(C)(C)OC2 [CID1251121, Methyl 2-(3-benzoylthioureido)-5,5-dimethyl-5,7-dihydro-4H-thieno[2,3-c]pyran-3-carboxylate]
Activity for all GTPases tested [1]: complete loss of activity

CC1(C)Cc2c(sc(NC(=S)Nc3ccccc3)c2C(=O)O)CO1 [CID1280844, 5,5-dimethyl-2-(3-phenylthioureido)-5,7-dihydro-4H-thieno[2,3-c]pyran-3-carboxylic acid]
Activity for all GTPases tested [1]: inactive

CC1Cc2c(sc(NC(=S)NC(=O)c3ccccc3)c2C(=O)O)CO1 (stereo not shown) [CID46916263, 2-(3-benzoylthioureido)-5-methyl-5,7-dihydro-4H-thieno[2,3-c]pyran-3-carboxylic acid]
Cell viability of U937 cells after treatment (U937 cells; 100 μM): 94% (100 μM)

CC1(C)Cc2c(sc(NC(=O)NC(=O)c3ccccc3)c2C(=O)O)CO1 [CID46916265, 2-(3-Benzoylureido)-5,5-dimethyl-5,7-dihydro-4H-thieno[2,3-c]pyran-3-carboxylic acid]
Cell viability of U937 cells after treatment (U937 cells; 100 μM): 98% (100 μM) | Loss in potency across GTPases relative to CID1067700 [1]: 35 fold | Loss in potency across GTPases relative to CID1067700 ([1]; listed as SID 99381130): 7 fold

O=C(NC(=S)Nc1sc2c(c1C(=O)O)CCOC2)c1ccccc1 [CID46916266, 2-(3-benzoylthioureido)-5,7-dihydro-4H-thieno[2,3-c]pyran-3-carboxylic acid]
Cell viability of U937 cells after treatment (U937 cells; 100 μM): 92% (100 μM)

CC1(C)Cc2c(sc(NC(=S)NC(=O)c3cccc(F)c3)c2C(=O)O)CO1 [CID53301930]
EC50 (Rab7 GTPase; [3]): 320 ± 90 nM | % Res (Rab7 GTPase; Assay format EDTA): 90 ± 6% | EC50 (Rab7 GTPase; [4]): 290 ± 190 nM | % Res (Rab7 GTPase; Assay format Mg): 39 ± 3% | Cell viability of U937 cells after treatment (U937 cells; 20 μM): 92%

CC1(C)Cc2c(sc(NC(=S)NC(=O)c3ccccc3Br)c2C(=O)O)CO1 [CID53301931, 2-(3-(2-Bromobenzoyl)thioureido)-5,5-dimethyl-5,7-dihydro-4H-thieno[2,3-c]pyran-3-carboxylic acid]
EC50 (Rab7 GTPase; [3]): 430 ± 680 nM | % Res (Rab7 GTPase; Assay format EDTA): 86 ± 10% | EC50 (Rab7 GTPase; [4]): 650 ± 870 nM | % Res (Rab7 GTPase; Assay format Mg): 35 ± 4% | Cell viability of U937 cells after treatment (U937 cells; 20 μM): 94% | solubility [2]: >93 μg/mL, | solubility [2, 5]: > 93 µg/mL and > 198 µM | solubility ([2]; pH 7.5): >93 μg/mL, | solubility ([2]; pH 7.5, read-out: Solubility): >198 µM | solubility ([2]; read-out: Solubility): >198 µM

COc1ccc(C(=O)NC(=S)Nc2sc3c(c2C(=O)O)CC(C)(C)OC3)cc1 [CID53301932, 2-(3-(4-Methoxybenzoyl)thioureido)-5,5-dimethyl-5,7-dihydro-4H-thieno[2,3-c]pyran-3-carboxylic acid]
EC50 (Rab7 GTPase; [3]): 140 ± 70 nM | % Res (Rab7 GTPase; Assay format EDTA): 94 ± 14% | EC50 (Rab7 GTPase; [4]): 140 ± 110 nM | % Res (Rab7 GTPase; Assay format Mg): 54 ± 2% | Cell viability of U937 cells after treatment (U937 cells; 20 μM): 96%

CC1(C)Cc2c(sc(NC(=S)NC(=O)c3ccc(Br)cc3)c2C(=O)O)CO1 [CID53301933]
EC50 (Rab7 GTPase; [3]): 300 ± 180 nM | % Res (Rab7 GTPase; Assay format EDTA): 93 ± 6% | EC50 (Rab7 GTPase; [4]): 270 ± 220 nM | % Res (Rab7 GTPase; Assay format Mg): 41 ± 6% | Cell viability of U937 cells after treatment (U937 cells; 20 μM): 93%

COc1cccc(C(=O)NC(=S)Nc2sc3c(c2C(=O)O)CC(C)(C)OC3)c1 [CID53301934, 2-(3-(3-Methoxybenzoyl)thioureido)-5,5-dimethyl-5,7-dihydro-4H-thieno[2,3-c]pyran-3-carboxylic acid]
EC50 (Rab7 GTPase; [3]): 150 ± 130 nM | % Res (Rab7 GTPase; Assay format EDTA): 68 ± 25% | EC50 (Rab7 GTPase; [4]): 320 nM | % Res (Rab7 GTPase; Assay format Mg): 37% | Cell viability of U937 cells after treatment (U937 cells; 20 μM): 94% | solubility [2]: 54.5 μg/mL, | solubility [2, 5]: 36.5 µg/mL and 86.8 µM | solubility ([2]; pH 7.5): 29.7 μg/mL, | solubility [2, 6]: 33.8 µg/mL and 80.4 µM | solubility ([2]; pH 7.5, read-out: Solubility): 70.6 µM (≈ 29.7 µg/mL) | solubility ([2]; read-out: Solubility): 129.6 µM (≈ 54.5 µg/mL)

CC1(C)Cc2c(sc(NC(=S)NC(=O)c3ccccc3F)c2C(=O)O)CO1 [CID53301935, 2-(3-(2-fluorobenzoyl)thioureido)-5,5-dimethyl-5,7-dihydro-4H-thieno[2,3-c]pyran-3-carboxylic acid]
EC50 (Rab7 GTPase; [3]): 140 ± 160 nM | % Res (Rab7 GTPase; Assay format EDTA): 97 ± 15% | EC50 (Rab7 GTPase; [4]): 170 ± 210 nM | % Res (Rab7 GTPase; Assay format Mg): 45 ± 2% | Cell viability of U937 cells after treatment (U937 cells; 20 μM): 96%

CC1(C)Cc2c(sc(NC(=S)NC(=O)c3cccc(Br)c3)c2C(=O)O)CO1 [CID53301936]
EC50 (Rab7 GTPase; [3]): 2510 ± 2100 nM | % Res (Rab7 GTPase; Assay format EDTA): 41 ± 0% | EC50 (Rab7 GTPase; [4]): > 100000 nM

CC1(C)CCc2sc(NC(=S)NC(=O)c3ccccc3)c(C(=O)O)c2C1 [CID53301937]
EC50 (Rab7 GTPase; [3]): 66 ± 20 nM | % Res (Rab7 GTPase; Assay format EDTA): 97 ± 5% | EC50 (Rab7 GTPase; [4]): 63 ± 10 nM | % Res (Rab7 GTPase; Assay format Mg): 53 ± 1% | Cell viability of U937 cells after treatment (U937 cells; 20 μM): 91%

Cc1ccc(C(=O)NC(=S)Nc2sc3c(c2C(=O)O)CC(C)(C)OC3)cc1 [CID53377395]
EC50 (Rab7 GTPase; [3]): 140 nM | % Res (Rab7 GTPase; Assay format EDTA): 102% | EC50 (Rab7 GTPase; [4]): 97 nM | % Res (Rab7 GTPase; Assay format Mg): 40%

CC1(C)Cc2c(sc(NC(=S)NC(=O)C3CCCCC3)c2C(=O)O)CO1 [CID53377396]
EC50 (Rab7 GTPase; [3]): 810 nM | % Res (Rab7 GTPase; Assay format EDTA): 89% | EC50 (Rab7 GTPase; [4]): 460 nM | % Res (Rab7 GTPase; Assay format Mg): 39%

COc1ccccc1C(=O)NC(=S)Nc1sc2c(c1C(=O)O)CC(C)(C)OC2 [CID53377397]
EC50 (Rab7 GTPase; [3]): 1120 nM | % Res (Rab7 GTPase; Assay format EDTA): 52%

CC1(C)Cc2c(sc(NC(=S)NC(=O)c3cccs3)c2C(=O)O)CO1 [CID53377398]
EC50 (Rab7 GTPase; [3]): 25 nM | % Res (Rab7 GTPase; Assay format EDTA): 103% | EC50 (Rab7 GTPase; [4]): 25 nM | % Res (Rab7 GTPase; Assay format Mg): 56%

CC(C)(C)C1Cc2c(sc(NC(=S)NC(=O)c3ccccc3)c2C(=O)O)CO1 (stereo not shown) [CID53377399]
EC50 (Rab7 GTPase; [3]): 470 nM | % Res (Rab7 GTPase; Assay format EDTA): 18% | EC50 (Rab7 GTPase; [4]): 220 nM | % Res (Rab7 GTPase; Assay format Mg): 47%

Cc1cccc(C(=O)NC(=S)Nc2sc3c(c2C(=O)O)CC(C)(C)OC3)c1 [CID53377400]
EC50 (Rab7 GTPase; [3]): 1160 nM | % Res (Rab7 GTPase; Assay format EDTA): 93% | EC50 (Rab7 GTPase; [4]): 360 nM | % Res (Rab7 GTPase; Assay format Mg): 30%

CCC1(C)Cc2c(sc(NC(=S)NC(=O)c3ccccc3)c2C(=O)O)CO1 (stereo not shown) [CID53377401]
EC50 (Rab7 GTPase; [3]): 37 nM | % Res (Rab7 GTPase; Assay format EDTA): 109% | EC50 (Rab7 GTPase; [4]): 35 nM | % Res (Rab7 GTPase; Assay format Mg): 43%

CC1(C)Cc2c(sc(NC(=S)NC(=O)c3ccco3)c2C(=O)O)CO1 [CID53377402]
EC50 (Rab7 GTPase; [3]): 74 nM | % Res (Rab7 GTPase; Assay format EDTA): 105% | EC50 (Rab7 GTPase; [4]): 82 nM | % Res (Rab7 GTPase; Assay format Mg): 63%

O=C(NC(=S)Nc1sc2c(c1C(=O)O)CC1(CCCC1)OC2)c1ccccc1 [CID53377403]
EC50 (Rab7 GTPase; [3]): 35 nM | % Res (Rab7 GTPase; Assay format EDTA): 72% | EC50 (Rab7 GTPase; [4]): 33 nM | % Res (Rab7 GTPase; Assay format Mg): 56%

Cc1ccccc1C(=O)NC(=S)Nc1sc2c(c1C(=O)O)CC(C)(C)OC2 [CID53377404]
EC50 (Rab7 GTPase; [3]): 410 nM | % Res (Rab7 GTPase; Assay format EDTA): 95% | EC50 (Rab7 GTPase; [4]): 520 nM | % Res (Rab7 GTPase; Assay format Mg): 47%

CC1(C)Cc2c(sc(NC(=S)NC(=O)c3ccc(F)cc3)c2C(=O)O)CO1 [CID53377405, 2-(3-(4-Fluorobenzoyl)thioureido)-5,5-dimethyl-5,7-dihydro-4H-thieno[2,3-c]pyran-3-carboxylic acid]
EC50 (Rab7 GTPase; [3]): 95 nM | % Res (Rab7 GTPase; Assay format EDTA): 100% | EC50 (Rab7 GTPase; [4]): 77 nM | % Res (Rab7 GTPase; Assay format Mg): 39% | Cell viability of U937 cells after treatment (U937 cells; 20 μM): 94% | solubility [2]: 67.6 μg/mL, | solubility [2, 5]: 85.7 µg/mL and 210 µM | solubility ([2]; pH 7.5): 69.1 μg/mL, | solubility [2, 6]: 98.2 µg/mL and 240 µM | solubility ([2]; pH 7.5, read-out: Solubility): 169.2 µM (≈ 69.1 µg/mL) | solubility ([2]; read-out: Solubility): 165.5 µM (≈ 67.6 µg/mL)

BODIPY FL GDP 2′-(or -3′)-O—[N-(2-aminoethyl)urethane] [BODIPY-GDP]
Kd (Rab7 wt): 40 nM

BODIPY FL GTP 2′-(or 3′)-O—[N-(2-aminoethyl)urethane] [BODIPY-GTP]
Kd (Rab7 wt): 100 nM
